Like-named read-outs stand apart in the source and are kept apart here. Where no end group is shown, it is not given here.
What was measured:
[1] = test system: human prostate cancer cell line (PC-3); type: cell-based; details: 48 h
Description: CAKI2 cells were cultured and adjusted to cell count of about 5×10^3 cells per single well of 96-well plate. The amount of medium at this time was made to be 100 μL per well. Next, the 96-well plate was arranged in a CO2 incubator and incubated for about 1 day (21 hours to 24 hours) under conditions of 37° C. and 5% CO2. […] Cell viability (%) was determined in the manner described below. […] Following completion of incubation, cell viability (%) was evaluated using a colorimetric method consisting of recovering the cell culture liquid containing the above-mentioned reagent together with measuring absorbance at wavelength of 450 nm based on reduction of tetrazolium salt (value corrected for absorbance at a wavelength of 650 nm: A450 to A650). More specifically, the cell viability (%) of each test cell line was calculated from the measured absorbance as a relative value based on cell viability of 100% for the measured value (measured absorbance) of the comparison test group that underwent incubation for 48 hours as described above in only medium not containing peptide. Antitumor activity was evaluated for Sample 2 in above-mentioned Test Example 1 targeted at multiple types of human-derived cultured tumor cells. […]

in vitro = type: cell-based, human; details: human
Description: (§1) CAKI2 cells were cultured and adjusted to cell count of about 5×10^3 cells per single well of 96-well plate. The amount of medium at this time was made to be 100 μL per well. Next, the 96-well plate was arranged in a CO2 incubator and incubated for about 1 day (21 hours to 24 hours) under conditions of 37° C. and 5% CO2. Subsequently, peptide-containing test media were respectively prepared for each concentration so that the concentration of each sample peptide targeted for evaluation was 12.5 μM and 25 μM followed by supplying to the wells in which the cells targeted for evaluation were cultured (namely, the wells following the above-mentioned incubation) so that the amount of media was 90 μL per well. The 96-well plate was then returned to CO2 incubator followed by incubating for 48 hours under conditions of 37° C. and 5% CO2. The number of wells (n) at each concentration in each peptide addition test group was set to 3. Thus, the values of the results indicated in the following table are the average values of the results respectively obtained for 3 test wells. Cell viability (%) was determined in the manner described below. […] Following completion of incubation, cell viability (%) was evaluated using a colorimetric method consisting of recovering the cell culture liquid containing the above-mentioned reagent together with measuring absorbance at wavelength of 450 nm based on reduction of tetrazolium salt (value corrected for absorbance at a wavelength of 650 nm: A450 to A650). More specifically, the cell viability (%) of each test cell line was calculated from the measured absorbance as a relative value based on cell viability of 100% for the measured value (measured absorbance) of the comparison test group that underwent incubation for 48 hours as described above in only medium not containing peptide. Antitumor activity was evaluated for Sample 2 in above-mentioned Test Example 1 targeted at multiple types of human-derived cultured tumor cells. […]

[2] = test system: normal human mammary epithelial cells (MCF-12F); assay: in vitro; type: cell-based; details: each tumor cell line (CAKI2, PC-3, A2058, H2444, A549) versus MCF-12F; result in words
Description: as §1

## FIGNLALSDLLAGVAYTANLLLKKRTLRKNDRKKR-NH2 [Sample 2]
[1]; 12.5 μM
  Cell Viability (%): 25.6%
[1]; 25 μM
  Cell Viability (%): 2.5%
In vitro
  viability at 48 h, 12.5 μM: 59.6%
  viability at 48 h, 25 μM: 13.8%
[2]
  antitumor activity against tumor cells in comparison with normal cells: more potent antitumor activity
